“And” between values parts separate entries of the source, which are not always exact repeats. Equal entries are not always repeated. Where two headings read alike, the source gives them in different places.
Key:
HCMV polymerase = biological target: T1, HCMV polymerase (Human cytomegalovirus, UniProt P08546); test: HCMV polymerase assay (scintillation proximity assay); type: biochemical; conditions: pol type CMV
T1 construct: made in house; host or cells: recombinant baculovirus-infected SF-9 cells
T1 sequence (P08546 whole entry): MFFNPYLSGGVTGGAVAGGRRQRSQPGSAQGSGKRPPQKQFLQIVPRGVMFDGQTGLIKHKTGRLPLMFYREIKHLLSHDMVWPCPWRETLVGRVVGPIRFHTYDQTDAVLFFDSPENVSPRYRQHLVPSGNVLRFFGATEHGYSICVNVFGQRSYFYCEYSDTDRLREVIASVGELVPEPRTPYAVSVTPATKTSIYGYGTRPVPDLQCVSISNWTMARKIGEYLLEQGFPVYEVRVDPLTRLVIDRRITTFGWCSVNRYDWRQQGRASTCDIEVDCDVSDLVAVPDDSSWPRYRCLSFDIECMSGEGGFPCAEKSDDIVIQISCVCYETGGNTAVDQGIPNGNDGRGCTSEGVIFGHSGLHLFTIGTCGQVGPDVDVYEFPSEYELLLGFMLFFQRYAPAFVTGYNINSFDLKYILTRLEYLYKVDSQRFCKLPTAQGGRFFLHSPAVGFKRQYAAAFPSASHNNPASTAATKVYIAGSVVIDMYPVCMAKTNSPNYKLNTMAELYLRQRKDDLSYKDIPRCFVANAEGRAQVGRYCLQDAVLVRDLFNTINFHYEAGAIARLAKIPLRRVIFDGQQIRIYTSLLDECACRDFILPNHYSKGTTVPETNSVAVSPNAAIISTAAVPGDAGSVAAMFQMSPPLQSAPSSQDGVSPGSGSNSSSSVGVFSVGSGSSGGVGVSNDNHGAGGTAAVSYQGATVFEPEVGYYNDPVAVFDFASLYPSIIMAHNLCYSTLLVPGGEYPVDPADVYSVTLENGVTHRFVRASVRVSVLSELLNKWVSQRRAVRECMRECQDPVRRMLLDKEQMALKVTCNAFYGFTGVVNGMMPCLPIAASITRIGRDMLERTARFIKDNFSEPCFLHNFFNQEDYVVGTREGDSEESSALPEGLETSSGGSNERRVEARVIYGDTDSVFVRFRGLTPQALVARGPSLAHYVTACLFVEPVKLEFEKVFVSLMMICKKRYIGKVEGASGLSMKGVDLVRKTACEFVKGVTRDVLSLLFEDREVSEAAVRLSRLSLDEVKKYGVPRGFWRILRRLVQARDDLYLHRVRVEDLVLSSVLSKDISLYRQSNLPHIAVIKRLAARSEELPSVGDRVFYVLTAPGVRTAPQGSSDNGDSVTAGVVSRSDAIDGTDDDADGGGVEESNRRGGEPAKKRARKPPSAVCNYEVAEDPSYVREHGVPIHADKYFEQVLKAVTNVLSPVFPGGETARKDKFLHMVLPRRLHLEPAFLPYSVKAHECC
Summary of the method: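 Baculovirus/SF-9-expressed purified enzyme in HEPES pH 7.5, KCl, 4.5 mM MgCl2, BSA, with 90 nM ³H-dTTP, ± 2 mM CHAPS; started with 6 nM biotinylated poly(dA)-oligo(dT), 30 min, stopped with EDTA. Incorporation read by streptavidin SPA beads; IC50 by linear regression.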

[1] = Table 1, read-out: CMV pol Assay IC50

**Q.** For `CCCCCCCCNS(=O)(=O)c1cc(Cl)c2ccc(C)nc2c1O` [Example 29, 5-Chloro-8-hydroxy-2-methyl-N-octyl-7-quinolinesulfonamide], which melting point is on record?
**A.** 85 to 100 °C

**Q.** What about the IC50 (HCMV polymerase; Table 2, read-out: IC50) of the same compound?
**A.** 18.3 µM and 40.1 µM

**Q.** Which melting point does the source give for `COc1ccc(/C=C/c2ccc3ccc(C(=O)NCCSc4ccccc4)c(O)c3n2)cc1` [Example 54, 8-Hydroxy-2-[2-(4-methoxyphenyl)ethenyl]-N-[2-(phenylthio)-ethyl]-7-quinolinecarboxamide] here?
**A.** 163 to 165 °C

**Q.** What about the IC50 (HCMV polymerase; Table 5, read-out: IC50) of the same compound?
**A.** < 3.1 µM and 0.3 µM

**Q.** What does the source list for `O=C(NCCSc1ccccc1)c1ccc2ccc(/C=C/c3ccccc3)nc2c1O` [Example 52, 8-Hydroxy-2-(2-phenylethenyl)-N-[2-(phenylthio)ethyl]-7-quinolinecarboxamide]?
**A.** melting point: 131 to 132 °C; IC50 (HCMV polymerase; Table 5, read-out: IC50): < 3.1 µM and 0.17 µM

**Q.** What does the source list for `COc1ccc(/C=C/c2ccc3ccc(C(=O)NCC(O)c4ccccc4)c(O)c3n2)cc1` (stereo not drawn) [Example 53, 8-Hydroxy-N-(2-hydroxy-2-phenylethyl)-2-[2-(4-methoxyphenyl)ethenyl]-7-quinolinecarboxamide]?
**A.** melting point: 203 to 205 °C; IC50 (HCMV polymerase; Table 5, read-out: IC50): < 3.1 µM and 0.3 µM

**Q.** For `O=C(NCc1ccc(Cl)cc1)c1ccc2ccc[n+]([O-])c2c1O` [Example 58, N-[(4-Chlorophenyl)methyl]-8-hydroxy-7-quinoline-N-oxide carboxamide], which melting point is on record?
**A.** 178 to 183 °C

**Q.** And the “% Inhib” value (HCMV polymerase; Table 5, Conc 1.00e-004 M)?
**A.** 65%

**Q.** What about the “% Inhib” value (HCMV polymerase; Table 5, Conc 1.30e-005 M) of the same compound?
**A.** 27.9%

**Q.** What about the “% Inhib” value (HCMV polymerase; Table 5, Conc 2.50e-005 M) of the same compound?
**A.** 40.2%

**Q.** And the “% Inhib” value (HCMV polymerase; Table 5, Conc 3.13e-006 M)?
**A.** −2.9%

**Q.** And the “% Inhib” value (HCMV polymerase; Table 5, Conc 5.00e-005 M)?
**A.** 46.2%

**Q.** And the “% Inhib” value (HCMV polymerase; Table 5, Conc 6.25e-006 M)?
**A.** 2.4%

**Q.** What about the IC50 (HCMV polymerase; Table 5, read-out: IC50) of the same compound?
**A.** 49.7 µM

**Q.** For `O=C(NCc1ccc(Cl)cc1)c1cc(Cl)c2cccnc2c1O` [Example 11, 5-Chloro-N-[(4-chlorophenyl)methyl]-8-hydroxy-7-quinolinecarboxamide], which melting point is on record?
**A.** 163 to 166 °C

**Q.** What about the IC50 (HCMV polymerase; [1]) of the same compound?
**A.** 1.3 µM

**Q.** What does the source list for `CC(C)(C)c1ccc2c(Cl)cc(S(=O)(=O)NCc3ccc(Cl)cc3)c(O)c2n1` [Example 19, 5-Chloro-N-[(4-chlorophenyl)methyl]-2-(1,1-dimethylethyl)-8-hydroxy-7-quinolinesulfonamide]?
**A.** melting point: 162 to 163 °C (dec.); IC50 (HCMV polymerase; Table 2, read-out: IC50): 23.6 µM

**Q.** Which results are given for `O=C(NCC(O)c1ccccc1)c1ccc2ccc(/C=C/c3ccccc3)nc2c1O` (stereo not drawn) [Example 50, 8-Hydroxy-N-(2-hydroxy-2-phenylethyl)-2-(2-phenylethenyl)-7-quinolinecarboxamide]?
**A.** melting point: 83 to 86 °C; IC50 (HCMV polymerase; Table 5, read-out: IC50): < 3.1 µM and 1.2 µM

**Q.** Which results are given for `O=C(NC1=NC(=O)C(c2cccc(Cl)c2)S1)c1ccc2cccnc2c1O` (stereo not drawn) [Example 8, N-[5-(3-Chlorophenyl)-4,5-dihydro-4-oxo-2-thiazolyl]-8-hydroxy-7-quinolinecarboxamide]?
**A.** melting point: 268 to 272 °C (dec.); IC50 (HCMV polymerase; [1]): 20.1 µM

**Q.** What does the source list for `Cc1ccc2c(Cl)cc(S(=O)(=O)NCc3ccc(Cl)cc3)c(O)c2n1` [Example 17, 5-Chloro-N-[(4-chlorophenyl)methyl]-8-hydroxy-2-methyl-7-quinolinesulfonamide]?
**A.** melting point: 158 to 161 °C (dec.); IC50 (HCMV polymerase; Table 2, read-out: IC50): 11.3 µM

**Q.** What does the source list for `O=C(NCc1ccc(Cl)cc1)c1ccc2c(O)cc(C(F)(F)F)nc2c1O` [Example 46, N-[(4-Chlorophenyl)methyl]-4,8-dihydroxy-2-trifluoromethyl-7-quinolinecarboxamide]?
**A.** melting point: 135 to 140 °C (dec.); IC50 (HCMV polymerase; Table 5, read-out: IC50): 23.3 µM

**Q.** For `O=C(NCc1ccc(Cl)cc1)c1ccc2ccc(/C=C/c3ccccc3)nc2c1O` [Example 51, N-[(4-Chlorophenyl)methyl]-8-hydroxy-2-(2-phenylethenyl)-7-quinolinecarboxamide], which melting point is on record?
**A.** 192 to 194 °C

**Q.** What about the IC50 (HCMV polymerase; Table 5, read-out: IC50) of the same compound?
**A.** < 3.1 µM and 0.17 µM

**Q.** Which melting point does the source give for `O=S(=O)(NCCc1ccc(Cl)cc1)c1cc(Cl)c2cccnc2c1O` [Example 23, 5-Chloro-N-[2-(4-chlorophenyl)ethyl]-8-hydroxy-7-quinoline-sulfonamide] here?
**A.** 192 to 194 °C

**Q.** What about the IC50 (HCMV polymerase; Table 2, read-out: IC50) of the same compound?
**A.** 2 µM and 3.1 µM

**Q.** Which melting point does the source give for `O=C(Nc1ncc(-c2ccc(Br)s2)s1)c1ccc2cccnc2c1O` [Example 7, N-[5-(5-Bromo-2-thienyl)-2-thiazolyl]-8-hydroxy-7-quinolinecarboxamide] here?
**A.** 279 to 281 °C (dec.)

**Q.** What about the IC50 (HCMV polymerase; [1]) of the same compound?
**A.** 6.9 µM

**Q.** For `O=C(Nc1nnc(Cc2ccc(Cl)cc2)s1)c1ccc2cccnc2c1O` [Example 2, N-[5-[(4-Chlorophenyl)methyl]-1,3,4-thiadiazol-2-yl]-8-hydroxy-7-quinolinecarboxamide], which melting point is on record?
**A.** 276 to 278 °C

**Q.** What about the IC50 (HCMV polymerase; [1]) of the same compound?
**A.** 4.3 µM

**Q.** With `Cc1ccc2c(Cl)cc(S(=O)(=O)NCCSc3ccccc3)c(O)c2n1` [Example 26, 5-Chloro-8-hydroxy-2-methyl-N-[2-(phenylthio)ethyl]-7-quinolinesulfonamide] as the compound, how does the melting point read?
**A.** 136 to 139 °C

**Q.** What about the IC50 (HCMV polymerase; Table 2, read-out: IC50) of the same compound?
**A.** 4.6 µM

**Q.** With `CCCCCCCNC(=O)c1ccc2ccc(/C=C/c3ccc(OC)cc3)nc2c1O` [Example 48, N-Heptyl-8-hydroxy-2-[2-(4-methoxyphenyl)ethenyl]-7-quinolinecarboxamide] as the compound, how does the melting point read?
**A.** 115 to 116 °C

**Q.** And the IC50 (HCMV polymerase; Table 5, read-out: IC50)?
**A.** 0.5 µM and < 3.1 µM

**Q.** What does the source list for `O=S(=O)(NCc1ccc(Cl)cc1)c1cc(Cl)c2cccnc2c1O` [Example 18, 5-Chloro-N-[(4-chlorophenyl)methyl]-8-hydroxy-7-quinoline-sulfonamide]?
**A.** melting point: 189 to 190 °C (dec.); IC50 (HCMV polymerase; Table 2, read-out: IC50): 27.9 µM

**Q.** For `Cc1ccc2c(Cl)cc(S(=O)(=O)NCCc3ccc(Cl)cc3Cl)c(O)c2n1` [Example 25, 5-Chloro-N-[2-(2,4-dichlorophenyl)ethyl]-8-hydroxy-2-methyl-7-quinolinesulfonamide], which melting point is on record?
**A.** 132 to 135 °C

**Q.** What about the IC50 (HCMV polymerase; Table 2, read-out: IC50) of the same compound?
**A.** 3.6 µM

**Q.** Which melting point does the source give for `O=C(NCc1ccc(Cl)cc1)c1cc(F)c2cccnc2c1O` [Example 16, 5-Fluoro-N-[[4-chlorophenyl]methyl]-8-hydroxy-7-quinolinecarboxamide] here?
**A.** 184 to 185 °C

**Q.** And the IC50 (HCMV polymerase; [1])?
**A.** 5.8 µM

**Q.** Which melting point does the source give for `O=C(Nc1ccc(Cl)cc1)c1ccc2cccnc2c1O` [Example 3, N-(4-Chlorophenyl)-8-hydroxy-7-quinolinecarboxamide] here?
**A.** 207 to 209 °C

**Q.** What about the IC50 (HCMV polymerase; [1]) of the same compound?
**A.** 7.1 µM
